Results as given in patent US20120149654A1 (priority 2009, published 2012).

System: ScGT1 cells
Settings: for cells remaining viable after treatment: mouse

fulvic acids [FA]
cell viability / cytotoxicity: remain viable
cells remaining viable after treatment: 94%

humic acids [HA]
cell viability / cytotoxicity: remain viable
cells remaining viable after treatment: 96%
